Test system: glioblastoma brain cancer cell line LN-229
Assay: Cytotoxicity assay (CCK8 viability)
Assay type: cell-based
Conditions: Homo sapiens, cytotoxicity against LN-229, 18 hours incubation, 1% FBS media
Protocol: Cytoxocity assay: Cells were seeded on a 96 well polystyrene plate in full serum media at a density of 75,000 cells per milliliter, 100 μL per well. Plates were incubated at 37° C. and 5% CO2 for 24 hours to allow cell attachment. Drug solutions were prepared in DMSO at 100× concentration and mixed 1:100 in 1% FBS media to yield the desired concentration. Drug-media mixtures were vortexed immediately prior to administration to cells. Full serum media was removed and replaced with drug-media mixtures and incubated for 18 hours. 10 μL of Cell Counting Kit 8 (CCK8, Dojindo# CK04-11) was added to each well to colormetrically assess viability. After 2-4 hours of incubation with the CCK8 dye, absorbance was read at 450 nm by a BioTek Synergy 2 plate reader.
The cytotoxicity of selected compounds against the glioblastoma brain cancer cell line LN-229 is depicted in Table 1.

Molecule CCCCCCC(C)(C)c1cc2c(c(O)n1)[C@@H]1C[C@H](C)CC[C@@H]1C(C)(C)O2 [Compound 6b, (6aS,9R,10aR)-6,6,9-trimethyl-3-(2-methyloctan-2-yl)-6a,7,8,9,10,10a-hexahydro-6H-isochromeno[4,3-c]pyridin-1-ol] has an EC50 of 2.43 µM.

CCCCCCC(C)(C)c1cc2c(c(O)n1)[C@H]1C[C@@H](C)CC[C@H]1C(C)(C)O2 [Compound 6c, (6aR, 9S, 10aS)-6,6,9-trimethyl-3-(2-methyloctan-2-yl)-6a,7,8,9,10,10a-hexahydro-6H-isochromeno[4,3-c]pyridin-1-ol] showed an EC50 of 1.83 µM.

From patent publication US8476439B2, “Pyridine classical cannabinoid compounds and related methods of use” (priority 2008, dated 2013)
